Test results from PubChem BioAssay AID248 (DTP/NCI, 2004).
“And” between values parts separate entries of the source, which are not always exact repeats. Equal entries are not always repeated. Toxic doses and inconclusive results are not listed. Cut-off read from the data, not from the text of the source: active = T/C of 150% or more; inactive = T/C below 125%.

Test system: L1210 leukemia ip in BDF1 mice, survival T/C
Assay: NCI In Vivo Anticancer Drug Screen. Data for tumor model L1210 Leukemia (intraperitoneal) in B6D2F1 (BDF1) mice
Details: endpoint: mean survival time, higher = longer survival
Method in brief: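 Ratio derived from survival: compound-dosed mice over vehicle-dosed mice, all bearing a transplantable tumor.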

[1] = dose: 100.0 mg/kg/injection, schedule: Q01DX001 (ip), vehicle: carboxymethylcellulose (CMC)
[2] = dose: 200.0 mg/kg/injection, schedule: Q01DX001 (ip), vehicle: carboxymethylcellulose (CMC)
[3] = dose: 100.0 mg/kg/injection, schedule: Q04DX002 (ip), vehicle: Klucel (hydroxypropylcellulose) (HPC)
[4] = dose: 100.0 mg/kg/injection, schedule: Q01DX001 (ip), vehicle: other
[5] = dose: 200.0 mg/kg/injection, schedule: Q01DX001 (ip), vehicle: other
[6] = dose: 400.0 mg/kg/injection, schedule: Q01DX001 (ip), vehicle: other

Measured: T/C

COc1cccc2c1C(=O)c1c(O)c3c(c(O)c1C2=O)C[C@@](O)(C(C)=O)C[C@@H]3OC1CC(NC(=S)Nc2ccc(F)cc2)C(O)C(C)O1 (stereo not given in full)
inactive: dose: 0.25 mg/kg/injection, schedule: Q04DX003 (ip), vehicle: other 100 % of control | dose: 0.5 mg/kg/injection, schedule: Q04DX003 (ip), vehicle: other 98 % of control | dose: 1.0 mg/kg/injection, schedule: Q04DX003 (ip), vehicle: other 104 % of control | dose: 2.0 mg/kg/injection, schedule: Q04DX003 (ip), vehicle: other 100 % of control | dose: 4.0 mg/kg/injection, schedule: Q04DX003 (ip), vehicle: other 112 % of control | dose: 6.0 mg/kg/injection, schedule: Q01DX009 (ip), vehicle: water 111 % of control | dose: 8.0 mg/kg/injection, schedule: Q04DX003 (ip), vehicle: other 112 % of control | dose: 12.0 mg/kg/injection, schedule: Q01DX009 (ip), vehicle: water 114 % of control | dose: 14.0 mg/kg/injection, schedule: Q04DX003 (ip), vehicle: water 108 % of control | dose: 16.0 mg/kg/injection, schedule: Q04DX003 (ip), vehicle: other 109 % of control | dose: 21.0 mg/kg/injection, schedule: Q04DX003 (ip), vehicle: water 108 % of control | dose: 23.0 mg/kg/injection, schedule: Q01DX009 (ip), vehicle: water 108 % of control | dose: 24.0 mg/kg/injection, schedule: Q01DX009 (ip), vehicle: water 116 % of control | dose: 39.0 mg/kg/injection, schedule: Q01DX009 (ip), vehicle: water 109 % of control | dose: 48.0 mg/kg/injection, schedule: Q01DX009 (ip), vehicle: water 122 % of control | dose: 50.0 mg/kg/injection, schedule: Q04DX003 (ip), vehicle: water 120 % of control | dose: 65.0 mg/kg/injection, schedule: Q01DX009 (ip), vehicle: water 109 % of control | dose: 108.0 mg/kg/injection, schedule: Q01DX009 (ip), vehicle: water 119 % of control | dose: 180.0 mg/kg/injection, schedule: Q01DX009 (ip), vehicle: water 104 % of control

C=CCCCCCCCCC(=O)N/N=C/c1cccc(OC)c1OC
inactive: dose: 100.0 mg/kg/injection, schedule: Q04DX002 (ip), vehicle: saline 95 % of control | dose: 200.0 mg/kg/injection, schedule: Q04DX002 (ip), vehicle: saline 103 % of control | dose: 400.0 mg/kg/injection, schedule: Q04DX002 (ip), vehicle: saline 106 % of control

Cc1cccc(C)c1NC(=O)OCCOc1ccc(Br)cc1
inactive: dose: 100.0 mg/kg/injection, schedule: Q01DX009 (ip), vehicle: saline with Tween-80 95 % of control | dose: 200.0 mg/kg/injection, schedule: Q01DX009 (ip), vehicle: saline with Tween-80 92 % of control | dose: 400.0 mg/kg/injection, schedule: Q01DX009 (ip), vehicle: saline with Tween-80 92 % of control

C[C@]12CC[C@H]3[C@@H](CC[C@]4(O)C[C@@H](O)CC[C@]34C=O)[C@@]1(O)CC[C@@H]2C1=CC(=O)OC1
inactive: dose: 12.5 mg/kg/injection, schedule: Q01DX009 (ip), vehicle: Klucel (hydroxypropylcellulose) (HPC) 102 % of control | dose: 25.0 mg/kg/injection, schedule: Q01DX009 (ip), vehicle: Klucel (hydroxypropylcellulose) (HPC) 104 % of control | dose: 50.0 mg/kg/injection, schedule: Q01DX001 (ip), vehicle: carboxymethylcellulose (CMC) 98 % of control | dose: 50.0 mg/kg/injection, schedule: Q01DX009 (ip), vehicle: Klucel (hydroxypropylcellulose) (HPC) 102 % of control | dose: 50.0 mg/kg/injection, schedule: Q01DX009 (ip), vehicle: carboxymethylcellulose (CMC) 103 % of control | dose: 75.0 mg/kg/injection, schedule: Q04DX003 (ip), vehicle: Klucel (hydroxypropylcellulose) (HPC) 102 % of control | [1] 96 % of control | dose: 100.0 mg/kg/injection, schedule: Q01DX009 (ip), vehicle: Klucel (hydroxypropylcellulose) (HPC) 109 % of control | dose: 100.0 mg/kg/injection, schedule: Q01DX009 (ip), vehicle: carboxymethylcellulose (CMC) 108 % of control | dose: 150.0 mg/kg/injection, schedule: Q04DX003 (ip), vehicle: Klucel (hydroxypropylcellulose) (HPC) 98 % of control | [2] 93 % of control | dose: 200.0 mg/kg/injection, schedule: Q01DX009 (ip), vehicle: Klucel (hydroxypropylcellulose) (HPC) 112 % of control | dose: 300.0 mg/kg/injection, schedule: Q04DX003 (ip), vehicle: Klucel (hydroxypropylcellulose) (HPC) 101 % of control

CCCCN(C)/N=N/c1nc[nH]c1C(=O)OC
inactive: dose: 33.0 mg/kg/injection, schedule: Q01DX015 (ip), vehicle: carboxymethylcellulose (CMC) 108 % of control | dose: 45.0 mg/kg/injection, schedule: Q01DX015 (ip), vehicle: carboxymethylcellulose (CMC) 117 % of control | dose: 60.0 mg/kg/injection, schedule: Q01DX015 (ip), vehicle: carboxymethylcellulose (CMC) 95 % of control | dose: 75.0 mg/kg/injection, schedule: Q01DX015 (ip), vehicle: carboxymethylcellulose (CMC) 86 % of control | [1] 98 % of control | [2] 104 % of control | dose: 400.0 mg/kg/injection, schedule: Q01DX001 (ip), vehicle: carboxymethylcellulose (CMC) 124 % of control

OCCN1CCN(CC/C=C2/c3ccccc3Sc3ccc(C(F)(F)F)cc32)CC1
inactive: dose: 0.78 mg/kg/injection, schedule: Q03HX024 (ip), vehicle: saline 94 % of control | dose: 1.56 mg/kg/injection, schedule: Q03HX024 (ip), vehicle: saline 103 % of control | dose: 2.0 mg/kg/injection, schedule: Q01DX009 (ip), vehicle: saline 89 % of control | dose: 2.5 mg/kg/injection, schedule: Q01DX009 (ip), vehicle: saline 114 % of control | dose: 3.12 mg/kg/injection, schedule: Q03HX024 (ip), vehicle: saline 105 % of control | dose: 4.0 mg/kg/injection, schedule: Q01DX009 (ip), vehicle: saline 98 % of control | dose: 5.0 mg/kg/injection, schedule: Q01DX009 (ip), vehicle: saline 103 % of control | dose: 6.25 mg/kg/injection, schedule: Q04DX003 (ip), vehicle: saline 101 % of control | dose: 8.0 mg/kg/injection, schedule: Q01DX009 (ip), vehicle: saline 93 % of control | dose: 10.0 mg/kg/injection, schedule: Q01DX009 (ip), vehicle: saline 116 % of control | dose: 10.0 mg/kg/injection, schedule: Q04DX003 (ip), vehicle: saline 115 % of control | dose: 12.5 mg/kg/injection, schedule: Q04DX003 (ip), vehicle: saline 110 % of control | dose: 18.75 mg/kg/injection, schedule: Q01DX001 (ip), vehicle: saline 107 % of control | dose: 20.0 mg/kg/injection, schedule: Q01DX009 (ip), vehicle: saline 95 % of control | dose: 37.5 mg/kg/injection, schedule: Q01DX001 (ip), vehicle: saline 117 % of control | dose: 50.0 mg/kg/injection, schedule: Q04DX003 (ip), vehicle: saline 121 % of control

Cc1cnc(N[N+](=O)[O-])nc1-c1ccccc1O
inactive: [3] 96 % of control | dose: 200.0 mg/kg/injection, schedule: Q04DX002 (ip), vehicle: Klucel (hydroxypropylcellulose) (HPC) 108 % of control | dose: 400.0 mg/kg/injection, schedule: Q04DX002 (ip), vehicle: Klucel (hydroxypropylcellulose) (HPC) 105 % of control

Cc1cc(C)c(C(=O)c2ccccc2C(=O)OC(=O)c2ccccc2C(=O)c2c(C)cc(C)cc2C)c(C)c1
inactive: dose: 100.0 mg/kg/injection, schedule: Q04DX002 (ip), vehicle: saline with Tween-80 88 % of control

NC(N)=N/N=C/c1cc(Cl)ccc1O
inactive: dose: 12.5 mg/kg/injection, schedule: Q04DX002 (ip), vehicle: Klucel (hydroxypropylcellulose) (HPC) 93 % of control | dose: 25.0 mg/kg/injection, schedule: Q04DX002 (ip), vehicle: Klucel (hydroxypropylcellulose) (HPC) 93 % of control and 110 % of control | [3] 106 % of control

CCCCNC(=O)c1cccc2c1-c1ccccc1C2=O
inactive: [4] 88 % of control | [5] 88 % of control | [6] 96 % of control

Cc1ccnc(NS(=O)(=O)c2ccc(N=Nc3c(N)[nH]c(=O)[nH]c3=O)cc2)n1
inactive: dose: 100.0 mg/kg/injection, schedule: Q01DX001 (ip), vehicle: saline 100 % of control | dose: 200.0 mg/kg/injection, schedule: Q01DX001 (ip), vehicle: saline 102 % of control | dose: 400.0 mg/kg/injection, schedule: Q01DX001 (ip), vehicle: saline 105 % of control

Brc1ccc(Br)c2cnccc12
inactive: [4] 93 % of control | [5] 106 % of control | [6] 104 % of control

COc1cc(Br)c(C(C)CC(=O)O)cc1OC (stereo not given)
inactive: dose: 100.0 mg/kg/injection, schedule: Q04DX003 (ip), vehicle: saline with Tween-80 103 % of control | dose: 200.0 mg/kg/injection, schedule: Q04DX003 (ip), vehicle: saline with Tween-80 98 % of control | dose: 400.0 mg/kg/injection, schedule: Q04DX003 (ip), vehicle: saline with Tween-80 92 % of control
